# Active and inactive are the calls of the source.
# What was measured:
# Protein RecA = target: T1, Protein RecA (Mycobacterium tuberculosis, UniProt P9WHJ3); assay: Fluorescence Cell-Free Homogeneous Dose Retest to Identify Inhibitors of RecA-Intein Splicing Activity. [Related pubchem assays (depositor defined):AID2097, AID2223, AID489010, AID492950]; type: functional
# T1 sequence (P9WHJ3 whole entry): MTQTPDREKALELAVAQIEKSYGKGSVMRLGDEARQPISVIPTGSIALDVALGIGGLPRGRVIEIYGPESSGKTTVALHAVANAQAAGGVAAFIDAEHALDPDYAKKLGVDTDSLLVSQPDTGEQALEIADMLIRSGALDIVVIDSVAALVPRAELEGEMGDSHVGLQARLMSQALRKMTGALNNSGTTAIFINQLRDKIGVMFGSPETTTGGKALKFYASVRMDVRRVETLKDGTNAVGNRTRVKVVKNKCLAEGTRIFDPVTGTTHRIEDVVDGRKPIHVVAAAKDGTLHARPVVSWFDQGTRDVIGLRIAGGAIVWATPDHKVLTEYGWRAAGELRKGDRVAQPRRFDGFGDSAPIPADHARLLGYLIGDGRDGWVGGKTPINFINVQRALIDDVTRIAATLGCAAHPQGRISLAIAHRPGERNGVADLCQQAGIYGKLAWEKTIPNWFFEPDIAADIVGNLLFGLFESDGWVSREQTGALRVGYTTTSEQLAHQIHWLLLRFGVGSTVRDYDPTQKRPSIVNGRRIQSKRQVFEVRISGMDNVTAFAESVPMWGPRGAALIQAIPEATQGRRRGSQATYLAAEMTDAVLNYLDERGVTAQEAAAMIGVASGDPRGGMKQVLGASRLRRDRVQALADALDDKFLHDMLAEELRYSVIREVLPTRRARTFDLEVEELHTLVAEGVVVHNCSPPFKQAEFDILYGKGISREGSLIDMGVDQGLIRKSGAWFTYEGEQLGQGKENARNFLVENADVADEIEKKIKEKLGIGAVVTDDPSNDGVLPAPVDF
# Caspase-3 = target: T2, Caspase-3 (Homo sapiens, UniProt P42574); assay: SAR Analysis of small molecule inhibitors of Sentrin-specific proteases (SENPs) using a Caspase-3 Selectivity assay. [Related pubchem assays (depositor defined):AID2540, AID2599, AID434973, AID489001]; type: functional
# T2 sequence (P42574 whole entry): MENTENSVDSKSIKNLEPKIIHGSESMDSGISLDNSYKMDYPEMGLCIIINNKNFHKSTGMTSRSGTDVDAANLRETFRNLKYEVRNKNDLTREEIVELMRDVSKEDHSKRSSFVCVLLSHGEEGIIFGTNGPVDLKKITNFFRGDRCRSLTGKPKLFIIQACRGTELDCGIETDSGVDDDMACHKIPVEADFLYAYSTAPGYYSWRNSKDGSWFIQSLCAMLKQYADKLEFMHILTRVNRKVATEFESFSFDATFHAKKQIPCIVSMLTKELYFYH
# [1] = target: T3, Sentrin-specific protease 6 (Homo sapiens, UniProt Q9GZR1); assay: SAR Analysis of small molecule inhibitors of Sentrin-specific protease 6 (SENP6) using a Luminescent assay. [Related pubchem assays (depositor defined):AID2582, AID2599]; type: functional
# T3 sequence (Q9GZR1 whole entry): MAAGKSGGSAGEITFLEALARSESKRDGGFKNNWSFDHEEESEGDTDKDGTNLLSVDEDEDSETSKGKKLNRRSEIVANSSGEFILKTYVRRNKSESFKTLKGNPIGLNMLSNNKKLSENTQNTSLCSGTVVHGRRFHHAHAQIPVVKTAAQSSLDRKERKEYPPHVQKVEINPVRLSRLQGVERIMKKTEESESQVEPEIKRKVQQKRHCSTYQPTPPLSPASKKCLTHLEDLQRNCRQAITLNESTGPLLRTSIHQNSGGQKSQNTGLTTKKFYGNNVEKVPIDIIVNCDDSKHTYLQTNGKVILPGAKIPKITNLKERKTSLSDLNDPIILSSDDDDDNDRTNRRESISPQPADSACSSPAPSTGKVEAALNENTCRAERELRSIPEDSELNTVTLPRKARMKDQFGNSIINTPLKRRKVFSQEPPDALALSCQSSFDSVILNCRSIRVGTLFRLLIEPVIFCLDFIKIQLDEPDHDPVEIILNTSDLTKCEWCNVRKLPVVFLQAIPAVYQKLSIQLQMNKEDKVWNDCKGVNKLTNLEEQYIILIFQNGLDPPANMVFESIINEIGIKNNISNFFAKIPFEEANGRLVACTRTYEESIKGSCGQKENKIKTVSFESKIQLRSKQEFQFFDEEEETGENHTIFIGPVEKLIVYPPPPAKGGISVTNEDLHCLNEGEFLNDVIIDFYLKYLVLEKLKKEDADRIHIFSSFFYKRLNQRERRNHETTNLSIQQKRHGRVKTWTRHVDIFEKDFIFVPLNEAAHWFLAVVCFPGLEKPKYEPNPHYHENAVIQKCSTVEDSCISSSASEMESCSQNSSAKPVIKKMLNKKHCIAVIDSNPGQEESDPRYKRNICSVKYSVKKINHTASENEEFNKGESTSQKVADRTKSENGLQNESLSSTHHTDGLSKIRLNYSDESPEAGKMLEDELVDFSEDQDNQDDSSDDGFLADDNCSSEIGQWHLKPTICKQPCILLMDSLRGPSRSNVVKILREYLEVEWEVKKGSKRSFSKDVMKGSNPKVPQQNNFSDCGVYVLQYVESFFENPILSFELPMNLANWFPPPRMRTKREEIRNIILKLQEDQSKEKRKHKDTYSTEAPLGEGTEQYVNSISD
# [2] = target: Ribosomal protein S6 kinase alpha-3 (Homo sapiens, UniProt P51812); type: functional;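 further: measured within a kinome-wide profiling panel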
# Ribosomal protein S6 kinase alpha-3, sequence (P51812 whole entry): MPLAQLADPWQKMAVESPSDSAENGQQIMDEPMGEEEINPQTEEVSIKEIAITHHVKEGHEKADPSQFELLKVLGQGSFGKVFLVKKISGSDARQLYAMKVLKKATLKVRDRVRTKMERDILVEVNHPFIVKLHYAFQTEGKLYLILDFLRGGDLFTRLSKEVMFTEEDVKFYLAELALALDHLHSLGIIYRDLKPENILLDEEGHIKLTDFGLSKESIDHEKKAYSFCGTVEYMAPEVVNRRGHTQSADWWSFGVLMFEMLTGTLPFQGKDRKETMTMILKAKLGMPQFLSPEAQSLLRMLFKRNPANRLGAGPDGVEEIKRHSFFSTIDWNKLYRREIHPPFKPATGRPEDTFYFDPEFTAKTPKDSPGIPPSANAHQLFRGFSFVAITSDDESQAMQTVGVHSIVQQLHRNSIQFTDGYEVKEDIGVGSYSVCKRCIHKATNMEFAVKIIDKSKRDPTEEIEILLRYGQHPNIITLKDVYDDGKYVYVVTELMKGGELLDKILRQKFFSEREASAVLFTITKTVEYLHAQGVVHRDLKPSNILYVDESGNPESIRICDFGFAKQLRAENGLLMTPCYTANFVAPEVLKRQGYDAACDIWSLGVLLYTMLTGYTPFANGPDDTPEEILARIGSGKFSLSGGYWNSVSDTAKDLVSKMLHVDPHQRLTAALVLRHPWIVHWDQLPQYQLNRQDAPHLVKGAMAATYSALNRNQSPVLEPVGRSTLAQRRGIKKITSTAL
# [3] = target: Dual specificity mitogen-activated protein kinase kinase 1 (Homo sapiens, UniProt Q02750); assay: Navigating the Kinome. Panel member name: MAP2K1; type: functional
# Dual specificity mitogen-activated protein kinase kinase 1, sequence (Q02750 whole entry): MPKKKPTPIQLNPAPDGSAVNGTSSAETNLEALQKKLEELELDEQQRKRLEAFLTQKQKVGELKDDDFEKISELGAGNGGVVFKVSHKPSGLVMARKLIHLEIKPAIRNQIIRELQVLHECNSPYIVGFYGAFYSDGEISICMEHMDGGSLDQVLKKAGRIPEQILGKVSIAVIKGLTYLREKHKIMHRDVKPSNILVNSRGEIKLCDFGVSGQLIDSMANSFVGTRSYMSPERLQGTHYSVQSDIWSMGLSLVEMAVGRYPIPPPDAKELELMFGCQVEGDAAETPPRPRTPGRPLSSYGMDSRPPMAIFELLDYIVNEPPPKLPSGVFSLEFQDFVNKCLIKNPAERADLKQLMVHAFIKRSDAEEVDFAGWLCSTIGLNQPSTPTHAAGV
# [4] = target: Serine/threonine-protein kinase TBK1 (Homo sapiens, UniProt Q9UHD2); assay: Navigating the Kinome. Panel member name: TBK1; type: functional
# Serine/threonine-protein kinase TBK1, sequence (Q9UHD2 whole entry): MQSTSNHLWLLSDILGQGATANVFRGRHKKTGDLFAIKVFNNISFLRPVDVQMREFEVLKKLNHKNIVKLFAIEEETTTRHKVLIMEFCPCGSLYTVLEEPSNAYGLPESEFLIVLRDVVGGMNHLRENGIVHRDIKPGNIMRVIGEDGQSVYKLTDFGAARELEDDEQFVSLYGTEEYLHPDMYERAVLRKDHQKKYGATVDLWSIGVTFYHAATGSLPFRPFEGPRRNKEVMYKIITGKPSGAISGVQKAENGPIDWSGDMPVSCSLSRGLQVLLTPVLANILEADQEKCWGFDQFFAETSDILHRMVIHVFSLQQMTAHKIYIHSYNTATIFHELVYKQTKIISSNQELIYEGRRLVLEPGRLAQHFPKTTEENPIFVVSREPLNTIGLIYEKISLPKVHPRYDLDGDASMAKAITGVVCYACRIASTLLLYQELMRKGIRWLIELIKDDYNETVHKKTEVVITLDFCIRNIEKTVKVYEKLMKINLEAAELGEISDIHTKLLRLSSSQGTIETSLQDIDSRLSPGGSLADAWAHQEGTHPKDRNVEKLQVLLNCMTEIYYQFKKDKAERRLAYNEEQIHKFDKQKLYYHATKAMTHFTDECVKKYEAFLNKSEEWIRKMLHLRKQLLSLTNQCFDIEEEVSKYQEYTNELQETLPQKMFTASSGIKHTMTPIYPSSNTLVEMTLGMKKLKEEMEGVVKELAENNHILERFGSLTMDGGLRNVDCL
# [5] = target: Death-associated protein kinase 3 (Homo sapiens, UniProt O43293); type: functional;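 further: measured as one member of a kinome-wide profiling panel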
# Aurora kinase A = Aurora kinase A (Homo sapiens, UniProt O14965); type: functional;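 further: value from the Navigating the Kinome kinase panel profiling, panel entry STK6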
# Aurora kinase A, sequence (O14965 whole entry): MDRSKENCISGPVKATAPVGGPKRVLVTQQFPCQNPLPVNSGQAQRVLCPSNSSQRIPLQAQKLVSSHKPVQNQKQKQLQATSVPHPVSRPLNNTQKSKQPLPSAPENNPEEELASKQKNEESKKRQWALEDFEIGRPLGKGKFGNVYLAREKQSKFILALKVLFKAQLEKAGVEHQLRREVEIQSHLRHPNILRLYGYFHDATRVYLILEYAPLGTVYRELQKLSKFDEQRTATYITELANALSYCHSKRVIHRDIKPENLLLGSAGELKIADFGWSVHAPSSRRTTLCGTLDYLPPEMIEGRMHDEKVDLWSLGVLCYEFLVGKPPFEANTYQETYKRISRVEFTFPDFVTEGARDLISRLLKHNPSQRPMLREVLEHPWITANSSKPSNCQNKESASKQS
# [6] = target: High affinity nerve growth factor receptor (Homo sapiens, UniProt P04629); type: functional;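 further: NTRK1 tested as one member of a kinome-wide profiling panel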
# High affinity nerve growth factor receptor, sequence (P04629 whole entry): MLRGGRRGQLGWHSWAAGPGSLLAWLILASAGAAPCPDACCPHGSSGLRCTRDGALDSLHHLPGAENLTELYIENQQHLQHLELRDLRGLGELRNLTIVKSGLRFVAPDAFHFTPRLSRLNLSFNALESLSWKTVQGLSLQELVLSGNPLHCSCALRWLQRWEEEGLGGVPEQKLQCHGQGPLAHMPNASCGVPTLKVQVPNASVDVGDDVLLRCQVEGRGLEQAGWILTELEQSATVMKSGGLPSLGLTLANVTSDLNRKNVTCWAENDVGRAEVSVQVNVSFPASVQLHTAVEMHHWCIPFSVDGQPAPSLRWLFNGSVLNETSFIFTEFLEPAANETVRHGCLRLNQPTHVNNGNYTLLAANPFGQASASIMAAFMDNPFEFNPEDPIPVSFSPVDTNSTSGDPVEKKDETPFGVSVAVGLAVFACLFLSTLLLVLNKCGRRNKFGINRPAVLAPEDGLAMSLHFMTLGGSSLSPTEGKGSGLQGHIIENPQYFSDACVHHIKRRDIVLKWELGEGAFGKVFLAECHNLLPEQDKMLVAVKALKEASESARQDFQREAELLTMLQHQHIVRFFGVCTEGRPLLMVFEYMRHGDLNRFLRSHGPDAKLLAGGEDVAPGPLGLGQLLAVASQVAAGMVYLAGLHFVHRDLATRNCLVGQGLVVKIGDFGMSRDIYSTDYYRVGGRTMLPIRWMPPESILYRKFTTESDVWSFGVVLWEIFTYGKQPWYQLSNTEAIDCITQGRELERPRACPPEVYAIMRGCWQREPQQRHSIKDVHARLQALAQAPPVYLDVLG
# [7] = target: Hepatocyte growth factor receptor (Homo sapiens, UniProt P08581); type: functional;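 further: kinase panel profiling across the kinome, with MET as the panel member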
# [8] = target: Insulin-like growth factor 1 receptor (Homo sapiens, UniProt P08069); assay: Navigating the Kinome. Panel member name: IGF1R; type: functional
# Insulin-like growth factor 1 receptor, sequence (P08069 31-736 limits assumed): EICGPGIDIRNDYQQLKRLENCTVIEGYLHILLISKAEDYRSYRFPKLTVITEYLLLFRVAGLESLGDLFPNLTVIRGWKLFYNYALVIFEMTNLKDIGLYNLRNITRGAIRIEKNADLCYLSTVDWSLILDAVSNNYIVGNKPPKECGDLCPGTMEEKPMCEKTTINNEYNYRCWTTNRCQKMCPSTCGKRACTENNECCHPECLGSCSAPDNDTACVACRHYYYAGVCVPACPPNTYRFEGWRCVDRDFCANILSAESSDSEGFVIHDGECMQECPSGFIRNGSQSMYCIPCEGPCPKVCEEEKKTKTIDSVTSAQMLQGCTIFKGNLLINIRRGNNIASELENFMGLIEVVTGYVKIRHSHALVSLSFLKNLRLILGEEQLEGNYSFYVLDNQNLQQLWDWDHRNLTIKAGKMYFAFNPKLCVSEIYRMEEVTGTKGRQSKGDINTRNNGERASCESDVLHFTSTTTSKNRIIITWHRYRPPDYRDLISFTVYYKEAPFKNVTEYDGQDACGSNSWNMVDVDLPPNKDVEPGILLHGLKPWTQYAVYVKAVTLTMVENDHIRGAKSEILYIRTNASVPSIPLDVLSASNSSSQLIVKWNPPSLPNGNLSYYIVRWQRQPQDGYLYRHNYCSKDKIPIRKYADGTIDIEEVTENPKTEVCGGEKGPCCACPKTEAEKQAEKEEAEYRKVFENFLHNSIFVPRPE
# Insulin-like growth factor 1 receptor, sequence (P08069 741-1367 limits assumed): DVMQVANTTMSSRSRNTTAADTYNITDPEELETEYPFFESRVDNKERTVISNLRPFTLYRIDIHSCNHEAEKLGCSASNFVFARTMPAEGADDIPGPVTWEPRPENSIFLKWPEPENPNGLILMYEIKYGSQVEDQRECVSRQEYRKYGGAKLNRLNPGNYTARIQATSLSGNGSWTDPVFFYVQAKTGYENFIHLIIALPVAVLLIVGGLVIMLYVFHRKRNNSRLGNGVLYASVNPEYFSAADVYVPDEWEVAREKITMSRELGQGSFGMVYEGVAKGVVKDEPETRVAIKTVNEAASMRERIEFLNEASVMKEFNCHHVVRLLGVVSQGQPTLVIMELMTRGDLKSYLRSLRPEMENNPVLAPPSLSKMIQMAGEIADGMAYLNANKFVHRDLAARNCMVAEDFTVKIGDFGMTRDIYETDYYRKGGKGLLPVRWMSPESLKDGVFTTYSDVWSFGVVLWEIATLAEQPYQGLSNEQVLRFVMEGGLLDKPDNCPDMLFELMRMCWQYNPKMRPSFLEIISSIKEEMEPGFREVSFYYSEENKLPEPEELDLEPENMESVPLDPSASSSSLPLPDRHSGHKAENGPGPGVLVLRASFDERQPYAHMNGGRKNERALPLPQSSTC
# [9] = target: cAMP-dependent protein kinase catalytic subunit alpha (Homo sapiens, UniProt P17612); type: functional
# [10] = target: Mitogen-activated protein kinase 14 (Homo sapiens, UniProt Q16539); type: functional;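 further: part of a kinome-wide panel, MAPK14 entry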
# Mitogen-activated protein kinase 14, sequence (Q16539 whole entry): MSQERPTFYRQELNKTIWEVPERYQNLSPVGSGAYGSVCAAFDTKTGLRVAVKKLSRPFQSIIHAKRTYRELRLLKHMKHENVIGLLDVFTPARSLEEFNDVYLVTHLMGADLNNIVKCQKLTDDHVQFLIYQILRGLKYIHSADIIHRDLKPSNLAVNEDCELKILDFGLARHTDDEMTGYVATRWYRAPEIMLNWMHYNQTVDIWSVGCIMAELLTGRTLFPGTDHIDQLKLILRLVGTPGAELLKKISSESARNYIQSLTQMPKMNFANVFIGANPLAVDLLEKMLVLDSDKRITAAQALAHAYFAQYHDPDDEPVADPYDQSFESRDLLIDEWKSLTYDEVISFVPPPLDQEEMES
# [11] = alpha-synuclein stem-loop luciferase translation blockers – H4 neuroglioma cells, luminescence, confirmation (AID 1988); type: functional, cell-based
structure (smiles),measurement,setting,value
Cc1ccc(NC(=O)COc2cccc(/C=C3\SC(=S)N(CCC(=O)O)C3=O)c2)cc1Cl,EC50,Protein RecA,19.1 µM (active)
same,IC50,Caspase-3,> 99 µM (inactive)
same,IC50,[1],5.06 µM (active)
COc1cccc(C(C)NC(=O)c2ccc(-c3ccncc3)s2)c1 (centres undefined),Ki,[2],1.58 µM (active)
same,Ki,[3],> 3.16 µM (inactive)
same,Ki,[4],> 3.16 µM (inactive)
same,Ki,[5],> 5.01 µM (inactive)
same,Ki,Aurora kinase A,0.2 µM (active)
same,Ki,[6],> 3.16 µM (inactive)
same,Ki,[7],> 2.51 µM (inactive)
same,Ki,[8],> 2.51 µM (inactive)
same,Ki,[9],0.0794 µM (active)
same,Ki,[10],> 3.98 µM (inactive)
O=Nc1c(-c2c(O)[nH]c3cc(Br)ccc23)[nH]c2ccccc12,EC50,[11],9.31 µM (active)
